One substance from publication PMC7648750, “In vitro and in vivo BNCT investigations using a carborane containing sulfonamide targeting CAIX epitopes on malignant pleural mesothelioma and breast cancer cells” (Scientific Reports, 2020) can be followed below.

For data set [1], the system named is AB22 mesothelioma tumour. Nature of the data set: Tumour growth by MRI in AB22 mesothelioma tumour bearing mice (CA-SF with or without BNCT). Format: in vivo, Balb/c mice. The following applies: three i.v. doses 37.5 mg/kg of boron at day 0, 2, 6, followed 25 days. How it is done: CA-SF treatment on mesothelioma bearing mice, were performed in the thermal column of the TRIGA Mark II reactor at Pavia University (Italy) using the same protocol reported in reference^35. The irradiation facility was previously designed for TAOrMINA treatment developed to treat multiple liver metastases with BNCT. The chamber used to perform animal irradiation has a cross section of 40 × 20 cm^2, a length of 1 m and it starts at about 1.3 m from the center of the reactor core. The animal irradiation position has been characterised in terms of neutron spectrum and background photon dose[43]. […]
The T2-weighted MR images were acquired at 1 T with an Aspect M2-High Performance MRI System (Aspect Magnet Technologies Ltd., Netanya, Israel) consisting of a NdFeB magnet, equipped with a 35 mm solenoid Tx/Tr coil of inner diameter 35 mm. […] The tumour volume (mm^3) was calculated in the region of interest (ROI) manually drawn on the whole tumour by ITK-SNAP software. Tumour volume enhancement (%) was calculated according to the following equation: ((tumour volume (time = n) – tumour volume (time = 0)/tumour volume (time = 0)) × 100, where time = 0 indicates the day of the first CA-SF treatment and time = n indicates the days when mice were acquired by MRI.

A short description of data set [2]: Boron biodistribution in AB22 tumour bearing mice (ICP-MS). The format is in vivo, Balb/c mice. The settings on record: 37.5 mg/kg of boron, ± SD; for Brain [boron]: with β-cyclodextrin oligomer. On the procedure:
Adult male Balb/c mice were maintained under specific pathogen-free conditions at the animal facility of the Department of Molecular Biotechnology and Health Sciences (Turin University, Italy). All animal experiments have been carried out in accordance with the EU Directive 2010/63/EU for animal experiments. The animal treatment protocol was approved by the Italian Ministry of Health (Authorization Number 1012/2015-PR). AB22 cells were cultured as described above and tumours were generated by the injection of 4.8 × 10^6 AB22 cells in a final volume of 0.15 ml GFNR Matrigel (CORNING Ref. 354234): PBS (1:1 v/v) subcutaneously in the neck of the mouse. One week after the AB22-cell injection, the mice developed solid tumours of approximately 50 ± 10 mm^3 in volume. At this time, mice (n = 6) received an intravenous injection of CA-SF (88 mg/kg corresponding to 37.5 mg/kg of ^10B). Before the injection, CA-SF in DMSO was mixed in the presence of poly β-cyclodextrin (MW = 15,000 Da) previously dissolved in 0.9% solution of NaCl. The used CA-SF molar ratio with respect to β-cyclodextrin oligomer was 10:1. The DMSO concentration in 0.9% NaCl was kept under 5%. The mice were then sacrificed at 6 h (n = 3) and at 16 h (n = 3). The boron content of mice plasma, tumours, organs (Liver, Lung, Brain, Spleen, Kidneys) and healthy tissues (Muscle) was determined by ICP-MS technique (see below).
Boron content from cell samples, mice organs, plasma and tumours were determined using inductively coupled plasma mass spectrometry (ICP-MS) (Element-2; Thermo-Finnigan, Rodano (MI), Italy).
The mice blood was collected and centrifuged at 2500 rpm for 10 min to split the plasma part over whole blood; the tumours, organs and healthy tissues were explanted. All was weighted, dissolved in HNO3 (70%) and digested. Both natural boron abundant and ^10B enriched standard solution was analyzed during sample runs in order to check for variations in the systematic bias. The calibration curve was obtained using four boron absorption standard solutions (Sigma-Aldrich) in the range 0.1–0.004 μg/mL.

With 1-Sulfonamidomethyl-o-carborane [CA-SF], the “tumour growth (MRI tumour volume) vs vehicle control mice” value in data set [1] (CA-SF alone, not irradiated) is recorded as “significantly inhibits mice tumour growth”. In data set [1] (neutron irradiation day 3, 15 min, 250 kW), the “tumour growth (MRI tumour volume), CA-SF + BNCT” value is given as “dramatic reduction of the mass of tumours”. In data set [2] (6 h post i.v.), the “Brain [boron]” value was 30.7 ± 11.2 µg/g, the “Kidney [boron]” value turned out to be 48.2 ± 15.3 µg/g, the “Liver [boron]” value worked out at 64.5 ± 1.2 µg/g and the “Lungs [boron]” value is 37.2 ± 11.2 µg/g. For the same substance, in data set [2] (6 h post i.v.), the “Muscle [boron]” value came to 13.2 ± 2.5 µg/g, the “Plasma [boron]” value is 20.4 ± 5.4 µg/g, the “Spleen [boron]” value came to 18.5 ± 5.8 µg/g and the “Tumour [boron]” value is 13.8 ± 2.4 µg/g. For the same substance, in data set [2] (16 h post i.v.), the “Brain [boron]” value was 7.3 ± 1.1 µg/g, the “Kidney [boron]” value turned out to be 13.7 ± 1.9 µg/g, the “Liver [boron]” value is 22.7 ± 3.5 µg/g and the “Lungs [boron]” value is 12.1 ± 2.2 µg/g. For the same substance, in data set [2] (16 h post i.v.), the “Muscle [boron]” value turned out to be 4.4 ± 1.2 µg/g, the “Plasma [boron]” value was found to be 11.1 ± 1.3 µg/g, the “Spleen [boron]” value was 6.2 ± 1.5 µg/g and the “Tumour [boron]” value is 7.4 ± 2.1 µg/g.
